{
  "source": "patent US9999609B2",
  "about": "“Methods for treating or preventing fatigue” (SK Biopharmaceuticals Co., Ltd., priority 2009, dated 2018)",
  "test_system": "male adult Sprague Dawley rats",
  "assay": "Sleep-wake organization (EEG/EOG/EMG) in rats after acute i.p. administration",
  "format": "in vivo",
  "conditions": "rats, mean ± s.e.m of 8 rats; for Duration Active wake / Duration Deep sleep / Duration Intemediate stage / Duration Light sleep / Duration Passive wake / Duration REM sleep: 16 h recording",
  "data": [
    {"smiles": "CC(N)Cc1ccccc1", "note": "(stereo not drawn) [Amphetamine, amphetamine]", "values": [
      {"measurement": "Duration Active wake", "setting": "1 mg/kg i.p.", "value": "382.4 ± 19.6", "unit": "min"},
      {"measurement": "Duration Deep sleep", "setting": "1 mg/kg i.p.", "value": "188.0 ± 19.6", "unit": "min"},
      {"measurement": "Duration Intemediate stage", "setting": "1 mg/kg i.p.", "value": "4.0 ± 19.6", "unit": "min"},
      {"measurement": "Duration Light sleep", "setting": "1 mg/kg i.p.", "value": "242.7 ± 19.6", "unit": "min"},
      {"measurement": "Duration Passive wake", "setting": "1 mg/kg i.p.", "value": "50.0 ± 19.6", "unit": "min"},
      {"measurement": "Duration REM sleep", "setting": "1 mg/kg i.p.", "value": "88.6 ± 19.6", "unit": "min"},
      {"measurement": "Latency ISWS", "setting": "1 mg/kg i.p.", "value": "140.6 ± 13.4", "unit": "min"},
      {"measurement": "Latency REM sleep", "setting": "1 mg/kg i.p.", "value": "208.6 ± 14.4", "unit": "min"},
      {"measurement": "Latency dSWS", "setting": "1 mg/kg i.p.", "value": "161.7 ± 5.3", "unit": "min"},
      {"measurement": "Shifts: Shift from ISWS to AW", "setting": "1 mg/kg i.p.", "value": "198.8 ± 50.1", "unit": "number"},
      {"measurement": "Shifts: Shift from ISWS to PW", "setting": "1 mg/kg i.p.", "value": "64.4 ± 30.5", "unit": "number"},
      {"measurement": "Shifts: Shift from REMS to AW", "setting": "1 mg/kg i.p.", "value": "66.5 ± 19.1", "unit": "number"},
      {"measurement": "Shifts: Shift from REMS to PW", "setting": "1 mg/kg i.p.", "value": "5.8 ± 4.8", "unit": "number"},
      {"measurement": "Shifts: Shift from dSWS to AW", "setting": "1 mg/kg i.p.", "value": "11.7 ± 7.2", "unit": "number"},
      {"measurement": "Shifts: Shift from dSWS to PW", "setting": "1 mg/kg i.p.", "value": "37.7 ± 30.0", "unit": "number"},
      {"measurement": "Duration Active wake", "setting": "3 mg/kg i.p.", "value": "441.8 ± 15.7", "unit": "min"},
      {"measurement": "Duration Deep sleep", "setting": "3 mg/kg i.p.", "value": "207.6 ± 17.7", "unit": "min"},
      {"measurement": "Duration Intemediate stage", "setting": "3 mg/kg i.p.", "value": "4.0 ± 1.0", "unit": "min"},
      {"measurement": "Duration Light sleep", "setting": "3 mg/kg i.p.", "value": "187.9 ± 23.9", "unit": "min"},
      {"measurement": "Duration Passive wake", "setting": "3 mg/kg i.p.", "value": "43.5 ± 4.4", "unit": "min"},
      {"measurement": "Duration REM sleep", "setting": "3 mg/kg i.p.", "value": "71.4 ± 4.1", "unit": "min"},
      {"measurement": "Latency ISWS", "setting": "3 mg/kg i.p.", "value": "228.2 ± 25.0", "unit": "min"},
      {"measurement": "Latency REM sleep", "setting": "3 mg/kg i.p.", "value": "338.6 ± 24.3", "unit": "min"},
      {"measurement": "Latency dSWS", "setting": "3 mg/kg i.p.", "value": "242.0 ± 19.4", "unit": "min"},
      {"measurement": "Shifts: Shift from ISWS to AW", "setting": "3 mg/kg i.p.", "value": "178.7 ± 46.6", "unit": "number"},
      {"measurement": "Shifts: Shift from ISWS to PW", "setting": "3 mg/kg i.p.", "value": "62.4 ± 26.1", "unit": "number"},
      {"measurement": "Shifts: Shift from REMS to AW", "setting": "3 mg/kg i.p.", "value": "59.3 ± 17.8", "unit": "number"},
      {"measurement": "Shifts: Shift from REMS to PW", "setting": "3 mg/kg i.p.", "value": "3.3 ± 2.6", "unit": "number"},
      {"measurement": "Shifts: Shift from dSWS to AW", "setting": "3 mg/kg i.p.", "value": "14.8 ± 7.8", "unit": "number"},
      {"measurement": "Shifts: Shift from dSWS to PW", "setting": "3 mg/kg i.p.", "value": "26.6 ± 16.8", "unit": "number"},
      {"measurement": "Duration Active wake", "setting": "10 mg/kg i.p.", "value": "498.7 ± 19.0", "unit": "min"},
      {"measurement": "Duration Deep sleep", "setting": "10 mg/kg i.p.", "value": "181.2 ± 22.0", "unit": "min"},
      {"measurement": "Duration Intemediate stage", "setting": "10 mg/kg i.p.", "value": "4.0 ± 1.0", "unit": "min"},
      {"measurement": "Duration Light sleep", "setting": "10 mg/kg i.p.", "value": "182.0 ± 26.3", "unit": "min"},
      {"measurement": "Duration Passive wake", "setting": "10 mg/kg i.p.", "value": "35.6 ± 4.7", "unit": "min"},
      {"measurement": "Duration REM sleep", "setting": "10 mg/kg i.p.", "value": "53.6 ± 5.0", "unit": "min"},
      {"measurement": "Latency ISWS", "setting": "10 mg/kg i.p.", "value": "284.7 ± 56.1", "unit": "min"},
      {"measurement": "Latency REM sleep", "setting": "10 mg/kg i.p.", "value": "440.8 ± 57.8", "unit": "min"},
      {"measurement": "Latency dSWS", "setting": "10 mg/kg i.p.", "value": "367.3 ± 5.5", "unit": "min"},
      {"measurement": "Shifts: Shift from ISWS to AW", "setting": "10 mg/kg i.p.", "value": "201.7 ± 66.1", "unit": "number"},
      {"measurement": "Shifts: Shift from ISWS to PW", "setting": "10 mg/kg i.p.", "value": "49.0 ± 25.5", "unit": "number"},
      {"measurement": "Shifts: Shift from REMS to AW", "setting": "10 mg/kg i.p.", "value": "50.0 ± 16.2", "unit": "number"},
      {"measurement": "Shifts: Shift from REMS to PW", "setting": "10 mg/kg i.p.", "value": "2.2 ± 1.9", "unit": "number"},
      {"measurement": "Shifts: Shift from dSWS to AW", "setting": "10 mg/kg i.p.", "value": "9.7 ± 5.9", "unit": "number"},
      {"measurement": "Shifts: Shift from dSWS to PW", "setting": "10 mg/kg i.p.", "value": "11.6 ± 8.9", "unit": "number"}
    ]}
  ]
}
